Source: US6991780B2, “Aluminum-zirconium antiperspirant salts with low M:CI ratio” (The Gillette Company, priority 2000, dated 2006)
Values joined by “and” are separate entries in the source; they are usually repeats but may differ in a detail not shown here. Equal values may be shown once. Each block holds one substance with its values, some of them ahead of it.

Columns and labels:
[1] = system: volunteer panelists (axilla); assay: standard hot room thermal efficacy (sweat reduction), test product on one axilla vs control on the other; format: in vivo, human; conditions: for antiperspirant efficacy compared with conventional enhanced antiperspirant salt (EAZCH): in words, from Table 2 data
Description: The above-described enhanced efficacy salt may be tested for thermal efficacy (i.e. hot room sweat reduction) using volunteer panelists in a standard hot room protocol. The test product (vehicle plus enhanced efficacy salt) is applied to one axilla and control product (vehicle only or vehicle plus standard efficacy antiperspirant salt) is applied to the other axilla. The above-described enhanced efficacy salt typically provides a sweat reduction of about 57–62% versus about 47–52% obtained with standard efficacy salt, when suspended as an 18–19% USP active in a liquid volatile silicone carrier vehicle. Also, a freshly prepared aqueous solution of the above-described enhanced efficacy salt (20% USP active) typically provides a sweat reduction of about 63–69% versus about 48–54% obtained with standard efficacy salt in aqueous solution at the same concentration.
The above-described high peak 5 enhanced efficacy salts of Example 1 are tested for thermal efficacy (i.e. hot room sweat reduction) using volunteer panelists in a standard hot room protocol. The test product is applied to one axilla and control product is applied to the other axilla in an AvB comparison. In all cases, the test product comprises vehicle (as described below) plus high peak 5 enhanced efficacy salt (E^5AZCH). The control product comprises vehicle plus conventional enhanced efficacy (high peak 4:3) antiperspirant salt (EAZCH), except where the vehicle is a clear gel formulation, in which case a standard efficacy salt (AZCH) is used because of the instability of the conventional enhanced salt in aqueous formulations. To counteract this instability, the formulation identified as “Aqueous” below, is freshly prepared with powdered EAZCH just prior to being tested. The results are reported as the average sweat reduction (“S.R.”) gain over the control (i.e. the absolute percentage point increase in sweat reduction over the control).

[2] = HPLC aluminum peak distribution after storage (stability of enhanced state); format: physicochemical; conditions: aqueous solution
Procedure: Throughout the specification reference to HPLC analysis means that chromatograms are obtained as follows: Salt solutions are evaluated for aluminum polymer distribution by HPLC at a concentration of about 10% (USP) Al—Zr salt. If the solution to be analyzed is at a higher salt concentration, it is diluted with sufficient water to bring the salt concentration to about 10%. A 1.0 μL sample is injected into a Waters U6K injector, then pumped through a 4.6 mm×500 mm column packed with Nucleosil 100-5 silica with pore size of 100 angstroms and particle size of 5 μm (Keystone Scientific Inc.) using a 0.01M aqueous nitric acid solution as the eluant. The flow rate of the mobile phase is controlled at 0.5 mL/min with an LDC/Milton Roy Constametric-II metering pump (ThermoQuest Inc.). HPLC profiles are recorded and processed with a computerized system that includes the Millennium 32 Chromatography Manager software from Waters Corp. A Waters 2410 differential refractometer is used as the refractive index detector. The HPLC profiles are read from left to right (higher to lower molecular weight). Following this technique, peak 3 typically appears at a retention time of about 11.0–12.0 minutes (Kd≅0.58–0.61), peak 4 typically appears at a retention time of about 11.9–12.9 minutes (Kd≅0.62–0.72), and peak 5 typically appears at a retention time of about 13.3–14.0 minutes (Kd≅0.83–0.91). […]

[3] = aqueous solution, 20% USP active (enhanced salt freshly prepared)
[4] = suspended as 18–19% USP active in liquid volatile silicone carrier vehicle

Substance: aluminum-zirconium octachlorohydrate-gly [salt B]
antiperspirant efficacy compared with conventional enhanced antiperspirant salt (EAZCH) [1]: more efficacious
retention of efficacy on storage ([1]; stored as concentrated aqueous solution for 1.5 years): retains its superior efficacy
Avg. S.R. Gain Over Control ([1]; vehicle Aqueous, aged 1.5 years, control EAZCH): 7.0 percentage point

Substance: aluminum-zirconium chlorohydrate [salt H]
antiperspirant efficacy compared with conventional enhanced antiperspirant salt (EAZCH) ([1]; listed as H): just as efficacious
Avg. S.R. Gain Over Control ([1]; vehicle Aqueous (20% USP AP active), control EAZCH freshly prepared, listed as H): 0.3 percentage point

Substance: aluminum-zirconium chlorohydrate [salt D]
antiperspirant efficacy compared with conventional enhanced antiperspirant salt (EAZCH) ([1]; listed as D): more efficacious
Avg. S.R. Gain Over Control ([1]; vehicle Aqueous (20% USP AP active), control EAZCH freshly prepared, listed as D): 5.9 percentage point and 4.6 percentage point
Avg. S.R. Gain Over Control ([1]; vehicle Roll-On (20.0% AP active), control EAZCH, listed as D): 8.7 percentage point

Substance: aluminum-zirconium chlorohydrate [salt J]
antiperspirant efficacy compared with conventional enhanced antiperspirant salt (EAZCH) ([1]; listed as J): more efficacious
Avg. S.R. Gain Over Control ([1]; vehicle Aqueous (20% USP AP active), control EAZCH freshly prepared, listed as J): 4.3 percentage point

Substance: aluminum-zirconium chlorohydrate [salt A]
antiperspirant efficacy compared with conventional enhanced antiperspirant salt (EAZCH) ([1]; listed as A): more efficacious
Avg. S.R. Gain Over Control ([1]; vehicle Roll-On (20.0% AP active), control EAZCH, listed as A): 5.8 percentage point

Substance: aluminum-zirconium chlorohydrate [salt K]
antiperspirant efficacy compared with conventional enhanced antiperspirant salt (EAZCH) ([1]; listed as K): just as efficacious
Avg. S.R. Gain Over Control ([1]; vehicle Aqueous (20% USP AP active), control EAZCH freshly prepared, listed as K): 1.7 percentage point

Substance: aluminum-zirconium chlorohydrate-gly [AZCH, reference compound]
sweat reduction [1, 3]: 48–54%
sweat reduction [1, 4]: 47–52%

stability of enhanced state (peak 4:3 ratio) in aqueous form [2]: peak 4:3 ratio deteriorates very quickly
Substance: aluminum-zirconium tetrachlorohydrate [EAZCH, reference compound]
sweat reduction [1, 3]: 63–69%
sweat reduction [1, 4]: 57–62%

Substance: aluminum-zirconium chlorohydrate [salt C]
retention of efficacy on storage ([1]; after storage of the clear gel at high temperature): maintains its high efficacy
antiperspirant efficacy compared with current commercial clear gel product (standard efficacy salt) ([1]; formulated as clear gel): substantially more efficacious
antiperspirant efficacy compared with conventional enhanced antiperspirant salt (EAZCH) ([1]; listed as C): more efficacious
Avg. S.R. Gain Over Control ([1]; vehicle Aqueous (20% USP AP active), control EAZCH freshly prepared, listed as C): 4.2 percentage point
Avg. S.R. Gain Over Control ([1]; vehicle Clear Gel (23.5% AP active), control AZCH): 15.9 percentage point
Avg. S.R. Gain Over Control ([1]; vehicle Clear Gel aged 3 months at 45° C., control AZCH): 13.3 percentage point

Substance: aluminum-zirconium chlorohydrate [salt F]
antiperspirant efficacy compared with conventional enhanced antiperspirant salt (EAZCH) ([1]; listed as F): more efficacious
Avg. S.R. Gain Over Control ([1]; vehicle Aqueous (20% USP AP active), control EAZCH freshly prepared, listed as F): 4.5 percentage point
Avg. S.R. Gain Over Control ([1]; vehicle Solid (23.5% AP active), control EAZCH, listed as F): 4.0 percentage point

Substance: aluminum-zirconium chlorohydrate [salt G]
antiperspirant efficacy compared with conventional enhanced antiperspirant salt (EAZCH) ([1]; listed as G): just as efficacious
Avg. S.R. Gain Over Control ([1]; vehicle Solid (23.5% AP active), control EAZCH, listed as G): 2.1 percentage point

Substance: aluminum-zirconium chlorohydrate [salt E]
antiperspirant efficacy compared with conventional enhanced antiperspirant salt (EAZCH) ([1]; listed as E): just as efficacious
Avg. S.R. Gain Over Control ([1]; vehicle Aqueous (20% USP AP active), control EAZCH freshly prepared, listed as E): 1.3 percentage point
